Measurements: patent US20240293400A1, “NOVEL AZAINDOLE DERIVATIVES AS ANTIVIRAL AGENTS” (Centre National de la Recherche Scientifique, priority 2021, published 2024)

How the values were obtained:
[1] = target: T1, Axl (Homo sapiens (Human), UniProt P30530); assay: Kinase panel Z'-LYTE/Adapta SelectScreen and IC50 determination; type: biochemical; conditions: for Percentage inhibition AXL: 100 nM in 1% DMSO; for IC50: 10 concentrations between 100 nM and 0.00495 nM
Method: FIG. 2: […] The compounds are screened in DMSO at 1% final. The kinases were diluted in a concentrated concentration twice in kinase buffer. All the ATP solutions were diluted in a 4-fold concentrated working concentration (50 mM HEPES pH 7.5, 0.01% BRIJ-35, 10 mM MgCl2, 1 mM EGTA). […] The inhibitory activity of the compounds on a panel of kinases including, inter alia, AXL and FLT3 was evaluated by Thermo Fisher Scientific using Z′-LYTE® and Adapta® Select Screen technology. The fluorescence-based biochemical test uses coupled enzymes and is based on the difference in sensitivity of the phosphorylated and non-phosphorylated peptides to proteolytic cleavage. The peptide substrate is labeled with 2 fluorophores—one at each end—allowing fluorescence transfer (FRET). […] The Axl or FLT3 kinases were diluted at a two-fold concentration in kinase buffer. All the ATP solutions are diluted in a 4-fold working concentration (50 mM HEPES PH 7.5, 0.01% BRIJ-35, 10 mM MgCl2, 1 mM EGTA).

[2] = system: SARS-COV-2 virus, BetaCoV/France/IDF0371/2020; assay: Anti-SARS-COV-2 activity in A549-ACE2 cells; type: cell-based; conditions: MOI=0.01, 24 hours, qRT-PCR; for infection of the A549-ACE2 cells by the SARS-COV-2 virus: 1.25 μM; for IC50: A549-ACE2 cells
[3] = target: FLT3 (Homo sapiens (Human), UniProt P36888); assay: IC50 determination on kinase FLT3 (SelectScreen); type: biochemical; conditions: 10 concentrations between 100 nM and 0.00495 nM
FLT3, sequence (P36888 27-993): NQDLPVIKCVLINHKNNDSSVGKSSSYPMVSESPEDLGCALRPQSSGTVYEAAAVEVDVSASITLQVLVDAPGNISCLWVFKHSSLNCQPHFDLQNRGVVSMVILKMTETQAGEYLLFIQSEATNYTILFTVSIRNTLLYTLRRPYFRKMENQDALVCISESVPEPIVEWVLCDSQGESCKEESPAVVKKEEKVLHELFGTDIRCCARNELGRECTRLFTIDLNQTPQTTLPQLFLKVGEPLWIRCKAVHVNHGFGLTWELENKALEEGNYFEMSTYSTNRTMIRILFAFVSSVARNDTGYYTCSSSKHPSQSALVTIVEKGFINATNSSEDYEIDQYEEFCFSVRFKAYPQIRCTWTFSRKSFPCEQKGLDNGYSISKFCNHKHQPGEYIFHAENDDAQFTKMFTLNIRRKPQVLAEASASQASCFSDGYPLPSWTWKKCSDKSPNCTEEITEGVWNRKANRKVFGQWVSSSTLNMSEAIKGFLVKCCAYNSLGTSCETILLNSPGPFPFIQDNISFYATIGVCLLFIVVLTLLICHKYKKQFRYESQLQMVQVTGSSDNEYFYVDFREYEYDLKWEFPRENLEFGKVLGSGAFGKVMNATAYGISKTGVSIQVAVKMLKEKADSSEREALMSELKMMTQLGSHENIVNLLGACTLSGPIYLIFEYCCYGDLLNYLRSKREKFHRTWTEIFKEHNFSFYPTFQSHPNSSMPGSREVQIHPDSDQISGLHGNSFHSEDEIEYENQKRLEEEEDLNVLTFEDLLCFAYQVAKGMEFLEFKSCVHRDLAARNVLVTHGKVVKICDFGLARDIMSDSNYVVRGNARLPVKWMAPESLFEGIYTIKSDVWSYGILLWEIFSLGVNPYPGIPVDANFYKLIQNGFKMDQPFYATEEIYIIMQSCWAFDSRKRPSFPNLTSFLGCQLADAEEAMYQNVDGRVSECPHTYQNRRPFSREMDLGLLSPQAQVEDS
Method: FIG. 2: Determination of the IC50 of compounds 1, 2 and 3 with respect to the inhibition of the kinase Axl and of the kinase FLT3. 10 concentrations of the compound were prepared by serial dilutions. The compounds are screened in DMSO at 1% final. The kinases were diluted in a concentrated concentration twice in kinase buffer. All the ATP solutions were diluted in a 4-fold concentrated working concentration (50 mM HEPES pH 7.5, 0.01% BRIJ-35, 10 mM MgCl2, 1 mM EGTA). Each compound was incubated at 10 concentrations between 100 nM and 0.00495 nM in order to calculate the IC50. The IC50 are indicated: a) results of compound 1; b) results of compound 2; c) results of compound 3.
The inhibitory activity of the compounds on a panel of kinases including, inter alia, AXL and FLT3 was evaluated by Thermo Fisher Scientific using Z′-LYTE® and Adapta® Select Screen technology.
The fluorescence-based biochemical test uses coupled enzymes and is based on the difference in sensitivity of the phosphorylated and non-phosphorylated peptides to proteolytic cleavage. The peptide substrate is labeled with 2 fluorophores—one at each end—allowing fluorescence transfer (FRET).
To calculate the IC50 inhibition of Axl and FLT3 by the compounds of the invention, 10 concentrations of each compound 1, 2 and 3 were prepared by 1/3 serial dilutions from the starting concentration. The Axl or FLT3 kinases were diluted at a two-fold concentration in kinase buffer. All the ATP solutions are diluted in a 4-fold working concentration (50 mM HEPES PH 7.5, 0.01% BRIJ-35, 10 mM MgCl2, 1 mM EGTA).
Each compound is incubated at 10 concentrations between 100 nM and 0.00495 nM in order to calculate the IC50.

[4] = system: ZIKV BeH8 strain; assay: Antiviral activity against the Zika virus in HeLa cells; type: cell-based; conditions: for concentration at which infection of the Hela cells by the strain ZIKV BeH-8 is prevented: 24 h, qRT-PCR; for concentration at which infection of the Hela cells by the strain ZIKV BeH-8 is prevented / IC50: HeLa cells; for IC50: BeH-8 strain, MOI=0.1, 24 h; for active on infectious model ZIKV: summary table
[5] = target: T1, Axl; assay: Inhibition of the phosphorylation of the kinase Axl in cellulo (immunoblot, Y779); type: cell-based; conditions: A549 cells, 2.5 μM compound 1 hour, 1 mM pervanadate 5 min
Method: FIG. 1: […] The A549 cells were preincubated for 1 hour with 2.5 μM of compounds targeting Axl. They were then stimulated for 5 min with 1 mM of pervanadate. The evaluation of the inhibition of the phosphorylation of the […] residue of the intracytoplasmic domain of Axl kinase is carried out by immunoblot using the antibody R&D Systems (AF2228) and measuring the intensity of the signals by densitometry (Image J) (P-Axl/Axl ratio). The A549 cells were preincubated for 1 hour with 2.5 μM of compound 1, 2, or 3. They were then stimulated for 5 min with 1 mM pervanadate, a compound known to activate the kinase Axl by phosphorylation. The inhibition of the phosphorylation of the […] residue of the intracytoplasmic domain of Axl is visualized by immunoblot using the antibody R&D Systems (AF2228).

[6] = system: SARS-COV-2; assay: Summary of activity on the SARS-COV-2 infectious models; type: cell-based; conditions: summary table
Method: The inhibitory activity of the compounds of the invention on the infection by SARS-COV-2 was evaluated in vitro by infection of three relevant lines for the study of this pathogen: the green monkey line VeroE6 (immortalized kidney epithelium, ATCC #CRL-1586), the A549-ACE2 line produced by transfection of the ACE2 receptor in the A549 line (pulmonary epithelial carcinoma; ATCC #CCL-185), commercial primary bronchial epithelium cells (Mucilair Epithelix).
The infection tests are carried out by preincubating 4×10^4 VeroE6 or A549-ACE2 cells, cultivated in a 96-well plate, with the indicated concentrations of compounds for 1 hour. The cells are cultivated in a 5% CO2 atmosphere in a Dulbecco's modified Eagle's medium (DMEM) comprising 2% calf serum and 1% penicillin/streptomycin. The cells were then exposed to the SARS-COV-2 virus, BetaCoV/France/IDF0371/2020 (MOI=0.01) for 2 hours in the presence of the compounds before elimination of the innoculum, washing and culturing the cells in the presence of the compounds. 24 h after the viral challenge, the infection is quantified by amplification of the viral RNA by qRT-PCR using the Luna Universal One-Step RT-PCR kit. The values (DCT) are normalized by the GAPDH mRNA. The values represented are averages of triplicates+standard deviation. The control conditions were carried out by incubating the cells in the presence of DMSO, the solvent used for the solubilization of the compounds tested. The volumes of DMSO used under these conditions correspond to the volumes provided by the compounds under the test conditions.

T1 sequence (P30530 26-894): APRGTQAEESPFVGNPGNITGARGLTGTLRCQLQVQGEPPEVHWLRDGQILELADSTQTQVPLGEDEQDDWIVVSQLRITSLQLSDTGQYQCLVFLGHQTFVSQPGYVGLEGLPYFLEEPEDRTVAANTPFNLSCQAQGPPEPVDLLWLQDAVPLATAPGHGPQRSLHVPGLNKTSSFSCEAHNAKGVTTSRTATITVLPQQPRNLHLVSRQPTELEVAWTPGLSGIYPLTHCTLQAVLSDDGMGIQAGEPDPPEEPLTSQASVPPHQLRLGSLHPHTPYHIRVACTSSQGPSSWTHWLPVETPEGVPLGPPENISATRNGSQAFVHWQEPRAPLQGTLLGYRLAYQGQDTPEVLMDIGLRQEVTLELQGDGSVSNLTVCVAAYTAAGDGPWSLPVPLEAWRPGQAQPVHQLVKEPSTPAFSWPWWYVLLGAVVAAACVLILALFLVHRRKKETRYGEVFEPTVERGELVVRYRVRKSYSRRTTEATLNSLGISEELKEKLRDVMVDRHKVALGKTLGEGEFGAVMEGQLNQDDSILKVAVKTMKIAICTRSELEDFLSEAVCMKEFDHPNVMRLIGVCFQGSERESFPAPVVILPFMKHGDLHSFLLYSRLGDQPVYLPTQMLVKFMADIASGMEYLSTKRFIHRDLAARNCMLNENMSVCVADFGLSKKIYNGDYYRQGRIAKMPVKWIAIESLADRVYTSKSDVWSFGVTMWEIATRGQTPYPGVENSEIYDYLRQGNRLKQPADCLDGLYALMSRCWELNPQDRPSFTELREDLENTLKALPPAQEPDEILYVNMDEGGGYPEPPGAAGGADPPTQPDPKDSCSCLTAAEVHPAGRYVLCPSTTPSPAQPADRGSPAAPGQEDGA

Row | SMILES | Percentage inhibition AXL [1] | IC50 [1] | infection of the A549-ACE2 cells by the SARS-COV-2 virus [2] | IC50 [2] | IC50 [3] | concentration at which infection of the Hela cells by the strain ZIKV BeH-8 is prevented [4] | IC50 [4] | active on infectious model ZIKV [4] | activation (phosphorylation) of the Y779 residue of AxL compared to the control (DMSO) [5] | active on infectious model SARS-COV-2 [6] | selectivity with respect to Axl relative to FLT3 ([1]; from IC50 Axl and IC50 FLT3)
1 | CN1CCN(Cc2cccc(-c3cnc4[nH]cc(-c5cc(CNCCc6ccc(O)cc6)ccc5F)c4c3)c2)CC1 [Compound 1] | 95% | 5.36 nM | prevent the infection | 19 nM | 2.5 nM | greater than or equal to 150 nM | 198 nM | ACTIVE | much lower or even zero activation | ACTIVE | 
2 | CN1CCN(Cc2cccc(-c3cnc4[nH]cc(-c5cc(CNCc6ccccc6)ccc5F)c4c3)c2)CC1 [Compound 2] | 95% | 2.36 nM | prevent the infection | 57 nM | 2.33 nM | greater than or equal to 150 nM | 25 nM | ACTIVE | much lower or even zero activation | ACTIVE | 
3 | CN1CCN(Cc2cccc(-c3cnc4[nH]cc(-c5cc(NC(=O)Nc6ccccc6)ccc5F)c4c3)c2)CC1 [Compound 3] | 94% | 6.3 nM | prevent the infection | 38 nM | 48.2 nM | greater than or equal to 150 nM |  |  | much lower or even zero activation | ACTIVE | shows a selectivity with respect to Axl relative to FLT3
